Assay results taken from US20260273252A1, “GROOVED MICRONEEDLES FOR PASSIVE AND ACTIVE DRUG DELIVERY” (Trustees of Tufts College, priority 2023, published 2026).

What was measured:
[1] = system: PTSD symptoms in patients; conditions: cited from earlier work
[2] = system: thermal nociception in rodents; test: Hot plate test, noxious thermal stimulus of 50 degrees Celsius (pilot studies); assay type: in vivo; conditions: for antinociceptive effects on thermal nociception (latency to lick a hind paw): 10 mg/kg i.p. for three consecutive days, hot plate 50 degrees Celsius, males, 24, 48 and 72 hours post treatment; for block of the antinociceptive effects of (2R,6R)-HNK by antagonist pretreatment: hot plate, given with (2R,6R)-HNK
Experimental: In addition, pilot studies were conducted to assess the antinociceptive potential of (2R,6R)-HNK (10 mg/kg intraperitoneal (i.p.) injection administered for three consecutive days) in response to a noxious thermal stimulus of 50 degrees Celsius on the hot plate apparatus. The latency to lick a hind paw was measured in males before and after (2R,6R)-HNK treatment at 24, 48, and 72 hours post treatment.

gait function = test: Forced swim test, gait function; assay type: in vivo; conditions: compared with ketamine
[3] = system: rodent model for CRPS and postoperative pain; conditions: cited from earlier work
[4] = system: mice with a spinal nerve injury; conditions: 24 hours following a single injection; cited from earlier work
[5] = 6 times over a 2-week period, 0.5 mg/kg 40-min infusions, treatment resistant subjects

For `CNC1(c2ccccc2Cl)CCCCC1=O` (racemic) [ketamine], the “median time to relapse after the cessation of treatment” value [1, 5] is listed as 41 days, the “start of persistent remission following the first infusion” value [1, 5] is listed as no less than 24 h and the “persistence of resolution of PTSD symptoms before re-emergence” value ([1]; single dose, adults and children) is listed as “over one”. For the same compound, the “patient health questionnaire score after treatment” value ([1]; six 1-hour infusions, mean final dose 163.83 mg, reduced from 18.5) was 9.5 and the “PTSD checklist for DSM-5 after treatment” value ([1]; six 1-hour infusions, mean final dose 163.83 mg, reduced from 56.2) was 31.3.
In the case of `N[C@@]1(c2ccccc2Cl)CCC[C@@H](O)C1=O` [(2R,6R)-HNK, 2R,6R-hydroxynorketamine], the “antinociceptive effects on thermal nociception (latency to lick a hind paw)” value [2] is listed as “long-lasting antinociceptive effects”, the “impairment of gait function” value (gait function) is listed as “does not impair gait function significantly” and the “persistence of analgesic effects following administration” value [3] is listed as “up to five”. For the same compound, the “antinociceptive effects after a single injection” value [4] was “Antinociceptive effects”.
For `N[C@]1(c2ccccc2Cl)CCC[C@H](O)C1=O` [(2S,6S)-HNK], the “antinociceptive effects on thermal nociception (latency to lick a hind paw)” value [2] was “not extended”.
In the case of `NS(=O)(=O)c1cccc2c1c([N+](=O)[O-])cc1nc(O)c(O)nc12` [NBQX], the “block of the antinociceptive effects of (2R,6R)-HNK by antagonist pretreatment” value [2] is reported as “effectively block”.
With `O=C1CC[C@@]2(O)[C@H]3Cc4ccc(O)c5c4[C@@]2(CCN3CC2CC2)[C@H]1O5` [naltrexone] the “block of the antinociceptive effects of (2R,6R)-HNK by antagonist pretreatment” value [2] was “failed to block”.
